{"source": "patent US20260060991A1", "about": "“METHODS AND COMPOSITIONS FOR INHIBITING CLONAL HEMATOPOIESIS” (The Jackson Laboratory, priority 2022, published 2026)", "tested_on": "WT recipient mice transplanted with Dnmt3a-mutant cells (Dnmt3a;Npm1-mutant)", "test": "Navitoclax treatment of mice transplanted with Dnmt3a-mutant cells, followed by tamoxifen induction of the Npm1 mutation (progression from clonal hematopoiesis to myeloid malignancy)", "format": "in vivo, mouse", "protocol": "FIG. 6A-6E: Navitoclax treatment attenuates Dnmt3a-mutant peripheral blood myeloid cell overproduction. (FIG. 6A) Dnmt3a-mutant cells were transplanted into wild type recipient mice, 12 weeks post-transplant Navitoclax or vehicle control was administered, and 2 weeks later the Npm1 mutation was induced in the Dnmt3a-mutant cells. (FIG. 6B) Frequency of donor-derived mature Dnmt3a;Npm1-mutant myeloid cells in peripheral blood of Navitoclax or vehicle control treated transplant mice. (FIG. 6C) Engraftment of donor-derived mature Dnmt3a;Npm1-mutant myeloid cells in BM (FIG. 6D) β-gal expression in BMSCs, and (FIG. 6E) monocyte count in navitoclax versus vehicle treated mice.\nNext, the functional importance of BMSC senescence in Dnmt3a-mutant transformation to AML was evaluated. Dnmt3a-mutant cells were transplanted into WT recipient mice, administered the senolytic Navitoclax or vehicle control, and then induced the AML driver mutation Npm1^c in vivo.\nUsing the senolytic Navitoclax, targeting Bcl-2/Bcl-xL, we evaluated the extent to which removing senescent cells caused by Dnmt3a-mutant haematopoiesis in vivo would delay progression from clonal hematopoiesis to myeloid malignancy. Briefly, Dnmt3a-mutant cells (cells from BM derived from CD45.2^+; Dnmt3a^R787H/+ MxCre; Npm1^frt-cA/+Flpo^ERT mice) were transplanted into recipient mice (CD45.1^+ mice) (FIG. 6A). After 12 weeks (‘Pre-senolytic’), recipient mice were either administered vehicle control or the senolytic agent, navitoclax, by oral gavage to selectively deplete senescent cells. Navitoclax was administered at a dosage of 50 mg/kg/day for 1 week, followed by 2 weeks of no treatment, followed by 1 week of treatment. Blood samples were collected from Pre-senolytic mice before administration of vehicle control or navitoclax. Following navitoclax treatment (‘Post-senolytic’), the AML driver mutation Npm1^cA/+ (‘TAM’) was induced using tamoxifen to initiate progression to myeloid malignancy. Blood samples were collected from Post-senolytic mice and TAM mice. Tamoxifen was administered for a period of 1 week. Blood samples were taken from tamoxifen treated mice (“Post-Npm1”).", "note": "Entries after “also recorded” stand apart in the source; their conditions may differ."}
{"substance": "navitoclax", "values": [{"measurement": "frequency of donor (CD45.2+) cells in the BM", "setting": "5 months after tamoxifen treatment (harvest), relative to vehicle treated controls, FIG. 6C", "value": "lower frequency"}, {"measurement": "BMSC senescence (measured by β-gal)", "setting": "5 months after tamoxifen treatment (harvest), relative to vehicle treated controls, FIG. 6D", "value": "maintained lower BMSC senescence"}, {"measurement": "monocyte (\"white blood cell\" or \"WBC\") count", "setting": "5 months after tamoxifen treatment (harvest), relative to vehicle treated controls, FIG. 6E", "value": "reduced monocyte"}, {"measurement": "frequency of myeloid cells (CD45.2+) in the peripheral blood (PB)", "setting": "Post-Npm1 sampling, navitoclax 50 mg/kg/day oral gavage, 1 week on, 2 weeks off, FIG. 6B", "value": "reduced frequency"}, {"measurement": "peripheral blood myeloid cell overproduction", "setting": "concurrent with transformation of Dnmt3a;Npm1-mutant cells, vs vehicle control", "value": "reduced; also recorded: attenuates"}]}
